Assay results taken from paper PMC4005005 (ChemMedChem, 2014).

Molecular target: T1, G9a (Homo sapiens, UniProt Q96KQ7)
T1 sequence (Q96KQ7 2-1210): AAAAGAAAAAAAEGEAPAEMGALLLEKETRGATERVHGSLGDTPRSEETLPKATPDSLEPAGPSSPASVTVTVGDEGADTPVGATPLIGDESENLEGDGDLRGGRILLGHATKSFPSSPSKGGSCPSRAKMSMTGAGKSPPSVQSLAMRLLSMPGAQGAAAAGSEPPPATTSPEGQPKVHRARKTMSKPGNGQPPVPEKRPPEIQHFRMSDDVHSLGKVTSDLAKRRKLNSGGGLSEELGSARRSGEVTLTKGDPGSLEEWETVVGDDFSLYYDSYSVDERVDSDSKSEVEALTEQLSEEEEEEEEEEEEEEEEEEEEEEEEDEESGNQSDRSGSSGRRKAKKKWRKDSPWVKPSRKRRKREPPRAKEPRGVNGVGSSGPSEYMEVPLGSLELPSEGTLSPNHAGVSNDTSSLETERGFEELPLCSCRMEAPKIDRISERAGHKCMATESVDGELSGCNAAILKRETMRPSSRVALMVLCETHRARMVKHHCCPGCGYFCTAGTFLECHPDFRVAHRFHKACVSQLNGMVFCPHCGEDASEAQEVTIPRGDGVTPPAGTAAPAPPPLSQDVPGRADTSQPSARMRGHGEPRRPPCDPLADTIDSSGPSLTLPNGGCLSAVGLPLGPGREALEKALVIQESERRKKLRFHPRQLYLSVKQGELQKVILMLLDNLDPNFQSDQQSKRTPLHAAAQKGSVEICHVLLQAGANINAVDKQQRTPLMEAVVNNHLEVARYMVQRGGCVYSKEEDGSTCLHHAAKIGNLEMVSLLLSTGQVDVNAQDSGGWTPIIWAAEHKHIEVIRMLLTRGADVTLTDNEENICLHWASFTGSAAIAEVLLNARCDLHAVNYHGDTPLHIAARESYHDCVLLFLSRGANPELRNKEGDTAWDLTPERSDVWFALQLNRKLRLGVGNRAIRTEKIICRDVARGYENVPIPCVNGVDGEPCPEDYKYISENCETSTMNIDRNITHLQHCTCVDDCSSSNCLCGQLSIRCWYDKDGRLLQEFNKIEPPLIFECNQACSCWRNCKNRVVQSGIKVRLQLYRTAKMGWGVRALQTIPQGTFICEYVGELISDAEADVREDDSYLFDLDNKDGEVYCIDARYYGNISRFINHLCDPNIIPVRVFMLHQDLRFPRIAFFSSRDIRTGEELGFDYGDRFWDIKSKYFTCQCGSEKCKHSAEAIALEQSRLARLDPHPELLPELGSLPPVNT
Test: scintillation proximity assay of 3H-methyl transfer to histone peptide
Assay type: biochemical

IC50: < 2.5 nM
Structure (SMILES): COc1cc2c(NC3CCN(CCCc4cn(CCOCCOCCOCCNC(=O)CCCC[C@H]5SC[C@H]6NC(=O)N[C@H]65)nn4)CC3)nc(C3CCCCC3)nc2cc1OCCCN1CCCC1 [compound 10, UNC0965]
